Calls of active or inactive are those of the source. The calls are words filed in the database; no cut-off is given here.
Key:
[1] = system: Cardiac muscle cell; experiment: Cytoprotective effect in rat cardiomyocytes under hypoxia-reoxygenation condition assessed as cell viability at 1 uM by trypan blue exclusion test; format: functional, cell-based
[2] = system: Cardiac muscle cell; experiment: Cytoprotective effect in rat cardiomyocytes under hypoxia-reoxygenation condition assessed as cell viability at 1 uM by trypan blue exclusion test in presence of etomoxir; format: functional, cell-based

Cn1ccnc1SCCC(=O)O
Activity [1]: Active
Activity [2]: inactive

Cc1cccc(C)c1OCCC(=O)O
Activity [1]: Active
Activity [2]: inactive

Cn1ccnc1SCCCCC(=O)O
Activity [1]: Active
Activity [2]: inactive

Cc1cccc(C)c1O/C=C/C(=O)O
Activity [1]: Active
Activity [2]: inactive

Cn1ccnc1S
Activity [1]: inactive

From ChEMBL document CHEMBL1157548, “Mitochondrial biotransformation of omega-(phenoxy)alkanoic acids, 3-(phenoxy)acrylic acids, and omega-(1-methyl-1H-imidazol-2-ylthio)alkanoic acids: a prodrug strategy for targeting cytoprotective antioxidants to mitochondria” (Bioorg Med Chem, 2010)
